Our source for the EC50 values is US20030207813A1, “Retroviral protease inhibitor combinations” (priority 1995, published 2003).

In brackets after ≈: the same amount, converted by molar mass.

One experiment concerns SF162R (resistant strains selected from SF162 against Example 1). Briefly: Acute infectivity assay in PHA-activated donor lymphocytes, resistant isolate SF162R. The note with it: Human immunodeficiency virus 1, Lymphocyte, Table 1, read-out: Virus Isolate (EC50 ng/mL) SF162R. Type of experiment: cell-based, HIV-1. As to the method: Approximately 3×10^7 cells are activated for 48 hours with about 3-5 μg/ml PHA in RPMI continuing 10% fetal bovine serum and IL-2 (10 U/ml). Quantitated virus stocks are added to the activated lymphocyte suspension at a multiplicity of infection of about 0.001-0.01. The cell-virus suspension is incubated at 37° C. for 2 hours to allow virus absorption. The residual virus inoculum is removed by centrifugation and the cells are resuspended in RPMI containing 10% FBS and 10 U/ml IL-2. These infected cells are added to the test-article diluted in complete tissue culture medium from a stock (10 mg/ml) in DMSO in 96 well microtiter plates to give about 5×10^5 cells per well per 200 μl. Infected, untreated cells and cells treated with DMSO alone (0.1%) or either AZT or DDI were used as controls. The cultures were examined for syncytia formation on days 7 and 11 post-infection or the supernants tested for reverse transcriptase activity or p24 antigen.
RF represents the HIV-1 strain HIV-LRF and RFR represents a mixture of resistant strains obtained by selection of RF against the compound of Example 1. RFR comprises a mixture of viral strains having protease genotypes of G48V (14/40 clones); G48V, V82A (18/40 clones); G48V, L90S (2/40 clones); G48V, 154T, V82A (1/40 clones); G48M (1/40 clones); G48V, Q61H (1/40 clones); V13I, G48V (1/40 clones); G48V, F53L, V82A (1/40 clones); and G48V, V82A, C95Y (1/40 clones). RFR2 represents a mixture of resistant strains obtained by cloning RFR by three rounds of growth at limiting dilution. RFR2 comprises a mixture of viral strains having protease genotypes of G48V, V82A (13/15 clones); G17E, G48V, V82A (1/15 clones); and G48V, V82A, N37D, N88D (1/15 clones). RFRR represents a mixture of resistant strains obtained by selection of RF against the compounds of Examples 1 and 2 and then cloning by three rounds of growth at limiting dilution. RFRR comprises a mixture of viral strains having protease genotypes of G48V, 154T, L63P, V82A (7/9 clones); G48V, 154T, L63P, V82A, N88S (1/9 clones); and G48V, 154T, L63P, G73M, V82A (1/9 clones). SF162 represents the HIV-1 strain SF-162 and SF162R represents a mixture of resistant strains obtained by selection of SF162 against the compound of Example 1. SF162R comprises a mixture of viral strains having protease genotypes of M461, F53L, L63P, A71V, N88D (2/3 clones); and M46I, F53L, L63P, A71V, N88D, Q92R (1/3 clones). 89-959 represents the HIV-1 strain 89-959 and 89-959R represents a mixture of resistant strains obtained by selection of 89-959 against the compound of Example 2. 89-959R comprises a mixture of viral strains having protease genotypes of N88S (4/5 clones); and D25N, T26A, D30N, D37N, R41K, G73D, R87K, N88S (1/4 clones). NL4 represents the HIV-1 strain HIV-1NL4-3. NL4(G48V) represents a strain having a synthetically generated site-directed mutation in the protease from glycine to valine at amino acid position number 48. NL4(I84V) represents a strain having a synthetically generated site-directed mutation in the protease from isoleucine to valine at amino acid position number 84. NL4(R8Q,M46I) represents a strain having synthetically generated site-directed mutations in the protease from arginine to glutamine at amino acid position number 8 and methionine to isoleucine at amino acid position number 46. NL4(P22-538) represents a mixture of resistant strains obtained by selection of HIV-1NL4-3 against the compound of Example 10 after 22 passages comprising protease genotypes M46I, L63P, A71V, V82F, I84V (4/10); M46I, L63P, V82F, I84V (3/10); and M46I, A71V, V82F, I84V (3/10). NL4(P37-538) represents resistant strains obtained by selection of HIV-1NL4-3 against the compound of Example 10 after 37 passages comprising protease genotype M46I, L63P, A71V, 184A. NL4(538/524) represents resistant strains obtained by selection of NL4(P22-538) against the compound of Example 5 after 24 passages comprising protease genotype M46I, L63P, A71V, 184A. […]
As to `CC(C)CN(C[C@@H](O)[C@H](Cc1ccccc1)NC(=O)[C@H](CC(N)=O)NC(=O)c1ccc2ccccc2n1)C(=O)NC(C)(C)C` (relative stereo) [Example 1, [1S-[1R*(R*),2S*]]-N^1-[3-[[[(1,1-dimethylethyl)amino]carbonyl])2-methylpropyl)amino]-2-hydroxy-1-(phenylmethyl)propyl]-2-[(2-quinolinylcarbonyl)amino]-butanediamide], the EC50 worked out at 443 ng/mL (≈ 0.733 µM).

On to `CC(C)(C)NC(=O)[C@@H]1CC2CCCC[C@@H]2CN1C[C@@H](O)[C@H](Cc1ccccc1)NC(=O)[C@H](CC(N)=O)NC(=O)c1ccc2ccccc2n1` (stereo in doubt) [Example 6, N-tert-Butyl decahydro-2-[2(R)-hydroxy-4-phenyl-3(S)-[[N-(2-quinolylcarbonyl)-L-asparaginyl]amino]butyl]-(4aR,8aS)-isoquinoline-3(S)-carboxamide], for which the EC50 stood at 11 ng/mL (≈ 0.0164 µM).

`CNCC(=O)N[C@H](C(=O)N[C@@H](Cc1ccccc1)[C@H](O)CN(CCC(C)C)C(=O)NC(C)(C)C)C(C)(C)C` [Example 2, (2R,3S)-3-(N-methylaminoacetyl-L-tert-butylglycinyl)amino-1-(N-isoamyl-N-(tert-butylcarbamoyl))amino-4-phenyl-2-butanol]: the EC50 is 6 ng/mL (≈ 0.0112 µM).

The experiment is the same for the next values; noted with them: Human immunodeficiency virus 1, Lymphocyte, Table 2, read-out: Virus Isolate (EC50 ng/mL) SF162R.
For the compound `CC(C)CN(C[C@@H](O)[C@H](Cc1ccccc1)NC(=O)[C@H](CC(N)=O)NC(=O)c1ccc2ccccc2n1)C(=O)NC(C)(C)C` (relative stereo) [Example 1, [1S-[1R*(R*),2S*]]-N^1-[3-[[[(1,1-dimethylethyl)amino]carbonyl])2-methylpropyl)amino]-2-hydroxy-1-(phenylmethyl)propyl]-2-[(2-quinolinylcarbonyl)amino]-butanediamide], the EC50 came to 111 ng/mL (≈ 0.184 µM).

For `CC(C)CCN(C[C@@H](O)[C@H](Cc1ccccc1)NC(=O)[C@H](CC(N)=O)NC(=O)c1ccc2ccccc2n1)C(=O)NC(C)(C)C` (relative stereo) [Example 7, [1S-[1R*(R*),2S*]]-N^1-[3-[[[(1,1-dimethylethyl)amino]carbonyl](3-methylbutyl)amino]-2-hydroxy-1-(phenylmethyl)propyl]-2-[(2-quinolinylcarbonyl)amino]-butanediamide], the EC50 came to 108 ng/mL (≈ 0.175 µM).

`CC(C)CN(C[C@@H](O)[C@H](Cc1ccccc1)NC(=O)[C@H](CC(N)=O)NC(=O)c1ccc2ccccc2n1)S(=O)(=O)NC(C)(C)C` [Example 8, N-[3-[N^2-[N^1-(1,1-dimethylethyl)aminosulfonyl]-N^2-(2-methylpropyl)amino]-2R-hydroxy-1S-(phenylmethyl)propyl]-2S-[(2-quinolinylcarbonyl)amino]butanediamide]: the EC50 was 98 ng/mL (≈ 0.153 µM).
